Each block holds one compound with its values, some of them ahead of it. Active and inactive are the calls of the source.
Key:
[1] = biological target: Voltage-dependent T-type calcium channel subunit alpha-1H (Homo sapiens, UniProt O95180); assay type: functional;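 note: channel activity triggered by adding a high calcium stimulation buffer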
Genome polyprotein = Genome polyprotein (dengue virus type 2, UniProt P29990); assay: flavivirus cap methylation enzyme inhibition – biochemical, confirmation dose response, primary screen (AID 588689); assay type: functional
[2] = biological target: T1, Polyadenylate-binding protein 1 (Homo sapiens, UniProt P11940); assay: MLLE binding blockers, Cy5 peptide tracer – biochemical, fluorescence polarization, Cy5-PAM2 peptide, secondary, miRNA deadenylation inhibitor project, dose response (AID 602260); assay type: functional; details: read-out: IC50_Mean
[3] = biological target: T1, Polyadenylate-binding protein 1; assay: MLLE domain peptide-binding blockers, IC50 – biochemical, fluorescence polarization, FITC-PAM2 peptide, dose response (AID 602259); assay type: functional; details: read-out: IC50_Mean
[4] = biological target: T2, Rac GTPase-activating protein 1 (Homo sapiens, UniProt Q9H0H5); assay: blockers of MgcRacGAP-driven Rac1 GTP hydrolysis – biochemical, ADP Hunter fluorescence, primary and confirmatory, confirmation (AID 624330); assay type: functional
T2 sequence (Q9H0H5 whole entry): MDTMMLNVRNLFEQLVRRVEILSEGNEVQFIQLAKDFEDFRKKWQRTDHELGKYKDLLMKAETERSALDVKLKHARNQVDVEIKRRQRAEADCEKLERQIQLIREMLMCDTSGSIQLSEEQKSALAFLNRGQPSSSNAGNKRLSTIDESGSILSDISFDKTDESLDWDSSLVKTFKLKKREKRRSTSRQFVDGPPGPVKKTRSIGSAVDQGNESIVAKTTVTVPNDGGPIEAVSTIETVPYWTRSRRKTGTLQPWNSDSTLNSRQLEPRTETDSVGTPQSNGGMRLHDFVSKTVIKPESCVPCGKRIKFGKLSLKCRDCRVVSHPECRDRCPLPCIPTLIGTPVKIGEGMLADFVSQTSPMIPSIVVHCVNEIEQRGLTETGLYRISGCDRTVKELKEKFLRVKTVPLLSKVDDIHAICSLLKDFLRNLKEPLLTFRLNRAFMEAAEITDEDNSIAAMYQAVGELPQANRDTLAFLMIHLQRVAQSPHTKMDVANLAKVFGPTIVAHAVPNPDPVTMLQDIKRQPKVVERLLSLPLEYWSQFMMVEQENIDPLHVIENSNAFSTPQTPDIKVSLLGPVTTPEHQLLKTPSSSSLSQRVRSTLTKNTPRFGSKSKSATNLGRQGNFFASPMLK

Fatty acid synthase [5] = biological target: T3, Fatty acid synthase (Homo sapiens, UniProt P49327); assay: inhibition of human FAS-TE enzyme activity – biochemical, endpoint fluorescence intensity, uHTS hits, dose response (AID 624327); assay type: functional;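 note: fluorescence from hydrolysis of an O-methyl fluorescein acyl ester substrate by the enzyme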
Fatty acid synthase [6] = biological target: T3, Fatty acid synthase; assay: inhibition of human FAS-TE enzyme activity – biochemical, kinetic fluorescence intensity, dose response (AID 624326); assay type: functional;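 note: rate of fluorescence rise from hydrolysis of a fluorogenic O-methyl fluorescein ester substrate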
Cytochrome P450 1A2 = biological target: T4, Cytochrome P450 1A2 (Homo sapiens, UniProt P05177);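 note: PubChem cytochrome P450 panel assay, CYP1A2 panel member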
T4 sequence (P05177 whole entry): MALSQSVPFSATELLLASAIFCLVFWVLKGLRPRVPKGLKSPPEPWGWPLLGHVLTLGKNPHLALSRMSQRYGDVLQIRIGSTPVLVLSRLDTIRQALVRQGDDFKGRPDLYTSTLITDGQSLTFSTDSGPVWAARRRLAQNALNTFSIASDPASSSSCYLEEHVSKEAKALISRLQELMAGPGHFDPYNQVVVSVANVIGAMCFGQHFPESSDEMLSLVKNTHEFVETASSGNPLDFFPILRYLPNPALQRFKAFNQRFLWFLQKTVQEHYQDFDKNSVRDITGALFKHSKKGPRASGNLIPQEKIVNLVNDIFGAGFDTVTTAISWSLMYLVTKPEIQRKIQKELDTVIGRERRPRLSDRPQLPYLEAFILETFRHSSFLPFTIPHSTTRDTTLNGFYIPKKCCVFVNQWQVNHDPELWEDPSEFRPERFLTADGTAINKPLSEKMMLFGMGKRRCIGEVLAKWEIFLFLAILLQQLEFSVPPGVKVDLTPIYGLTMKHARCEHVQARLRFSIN

Cytochrome P450 3A4 = Cytochrome P450 3A4 (Homo sapiens, UniProt P08684);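 note: CYP3A4 tested as one member of a cytochrome P450 panel screen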
[7] = viability loss in THP-1 monocytes – THP-1 cells, cytotoxicity control for Vif-APOBEC3G degradation inhibitor project, dose response (AID 1117359); assay type: functional; details: THP-1
[8] = biological target: T5, Short transient receptor potential channel 4 (Mus musculus, UniProt Q9QUQ5); assay: block of DAMGO-driven TRPC4 calcium entry – cell-based, HEK293 TRPC4/mu-opioid, Fluo-4 calcium, dose response (AID 434942); assay type: functional;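 note: potency of inhibitors blocking the TRPC4 calcium response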
T5 sequence (Q9QUQ5 whole entry): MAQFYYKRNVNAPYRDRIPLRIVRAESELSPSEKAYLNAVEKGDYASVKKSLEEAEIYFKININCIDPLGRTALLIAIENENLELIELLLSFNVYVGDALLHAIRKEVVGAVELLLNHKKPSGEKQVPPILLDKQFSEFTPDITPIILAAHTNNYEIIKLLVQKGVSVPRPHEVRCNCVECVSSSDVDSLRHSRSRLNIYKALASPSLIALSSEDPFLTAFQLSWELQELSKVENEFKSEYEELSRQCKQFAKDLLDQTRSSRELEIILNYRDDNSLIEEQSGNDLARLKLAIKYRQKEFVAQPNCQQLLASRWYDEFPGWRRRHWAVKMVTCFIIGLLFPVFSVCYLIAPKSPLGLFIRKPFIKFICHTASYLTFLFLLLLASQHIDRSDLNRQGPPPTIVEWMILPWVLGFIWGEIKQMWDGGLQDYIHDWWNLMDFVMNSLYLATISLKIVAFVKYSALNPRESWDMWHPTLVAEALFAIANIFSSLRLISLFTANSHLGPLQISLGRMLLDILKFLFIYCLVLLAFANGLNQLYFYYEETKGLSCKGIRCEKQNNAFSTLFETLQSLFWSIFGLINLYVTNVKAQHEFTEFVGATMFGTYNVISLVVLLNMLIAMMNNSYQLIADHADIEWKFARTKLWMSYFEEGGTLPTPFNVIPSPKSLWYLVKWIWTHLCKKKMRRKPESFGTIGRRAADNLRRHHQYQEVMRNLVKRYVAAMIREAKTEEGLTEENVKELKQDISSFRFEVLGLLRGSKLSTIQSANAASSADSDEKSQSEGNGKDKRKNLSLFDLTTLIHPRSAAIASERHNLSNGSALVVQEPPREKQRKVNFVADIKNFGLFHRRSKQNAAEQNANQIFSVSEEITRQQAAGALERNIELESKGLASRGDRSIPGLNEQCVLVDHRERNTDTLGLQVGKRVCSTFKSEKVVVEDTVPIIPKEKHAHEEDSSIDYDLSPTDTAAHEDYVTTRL

[9] = blockers of HIV-1 envelope-mediated cell-cell fusion – cherry-pick, dose response (AID 652057); assay type: functional, cell-based
[10] = blockers of HIV-1 ZM109 envelope-driven cell-cell fusion – HeLa effector, CEM target cells, luciferase, cherry-pick, dose response (AID 652058); assay type: functional, cell-based;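 note: luciferase signal from HIV-1 Env mediated cell-cell fusion of effector and target cells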
[11] = HIV-1 AD8 envelope cell-cell fusion blockers – cherry-pick, dose response (AID 652062); assay type: functional, cell-based;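 note: luciferase signal from cell-cell fusion driven by HIV-1 clade B AD8 Env; potency is for inhibitors of fusion seen as a drop in luminescence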

T1 sequence (P11940 whole entry, the tested form may be a part): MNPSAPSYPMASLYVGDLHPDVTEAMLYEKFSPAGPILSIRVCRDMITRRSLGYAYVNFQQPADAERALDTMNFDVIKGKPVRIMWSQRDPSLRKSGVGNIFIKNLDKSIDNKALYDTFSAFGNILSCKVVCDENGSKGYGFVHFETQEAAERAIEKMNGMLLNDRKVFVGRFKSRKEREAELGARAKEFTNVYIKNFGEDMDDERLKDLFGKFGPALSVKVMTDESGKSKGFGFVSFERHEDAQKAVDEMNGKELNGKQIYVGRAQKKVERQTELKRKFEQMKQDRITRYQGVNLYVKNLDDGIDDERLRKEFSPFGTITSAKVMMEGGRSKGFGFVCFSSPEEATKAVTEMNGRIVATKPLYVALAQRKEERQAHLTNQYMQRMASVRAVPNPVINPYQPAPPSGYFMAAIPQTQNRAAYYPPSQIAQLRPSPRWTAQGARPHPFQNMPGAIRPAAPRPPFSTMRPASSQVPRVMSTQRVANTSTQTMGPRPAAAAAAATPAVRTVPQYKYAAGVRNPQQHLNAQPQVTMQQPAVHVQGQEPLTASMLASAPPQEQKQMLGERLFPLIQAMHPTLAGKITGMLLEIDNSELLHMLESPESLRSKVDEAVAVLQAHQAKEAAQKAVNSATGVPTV
Sequence of Voltage-dependent T-type calcium channel subunit alpha-1H (O95180 whole entry): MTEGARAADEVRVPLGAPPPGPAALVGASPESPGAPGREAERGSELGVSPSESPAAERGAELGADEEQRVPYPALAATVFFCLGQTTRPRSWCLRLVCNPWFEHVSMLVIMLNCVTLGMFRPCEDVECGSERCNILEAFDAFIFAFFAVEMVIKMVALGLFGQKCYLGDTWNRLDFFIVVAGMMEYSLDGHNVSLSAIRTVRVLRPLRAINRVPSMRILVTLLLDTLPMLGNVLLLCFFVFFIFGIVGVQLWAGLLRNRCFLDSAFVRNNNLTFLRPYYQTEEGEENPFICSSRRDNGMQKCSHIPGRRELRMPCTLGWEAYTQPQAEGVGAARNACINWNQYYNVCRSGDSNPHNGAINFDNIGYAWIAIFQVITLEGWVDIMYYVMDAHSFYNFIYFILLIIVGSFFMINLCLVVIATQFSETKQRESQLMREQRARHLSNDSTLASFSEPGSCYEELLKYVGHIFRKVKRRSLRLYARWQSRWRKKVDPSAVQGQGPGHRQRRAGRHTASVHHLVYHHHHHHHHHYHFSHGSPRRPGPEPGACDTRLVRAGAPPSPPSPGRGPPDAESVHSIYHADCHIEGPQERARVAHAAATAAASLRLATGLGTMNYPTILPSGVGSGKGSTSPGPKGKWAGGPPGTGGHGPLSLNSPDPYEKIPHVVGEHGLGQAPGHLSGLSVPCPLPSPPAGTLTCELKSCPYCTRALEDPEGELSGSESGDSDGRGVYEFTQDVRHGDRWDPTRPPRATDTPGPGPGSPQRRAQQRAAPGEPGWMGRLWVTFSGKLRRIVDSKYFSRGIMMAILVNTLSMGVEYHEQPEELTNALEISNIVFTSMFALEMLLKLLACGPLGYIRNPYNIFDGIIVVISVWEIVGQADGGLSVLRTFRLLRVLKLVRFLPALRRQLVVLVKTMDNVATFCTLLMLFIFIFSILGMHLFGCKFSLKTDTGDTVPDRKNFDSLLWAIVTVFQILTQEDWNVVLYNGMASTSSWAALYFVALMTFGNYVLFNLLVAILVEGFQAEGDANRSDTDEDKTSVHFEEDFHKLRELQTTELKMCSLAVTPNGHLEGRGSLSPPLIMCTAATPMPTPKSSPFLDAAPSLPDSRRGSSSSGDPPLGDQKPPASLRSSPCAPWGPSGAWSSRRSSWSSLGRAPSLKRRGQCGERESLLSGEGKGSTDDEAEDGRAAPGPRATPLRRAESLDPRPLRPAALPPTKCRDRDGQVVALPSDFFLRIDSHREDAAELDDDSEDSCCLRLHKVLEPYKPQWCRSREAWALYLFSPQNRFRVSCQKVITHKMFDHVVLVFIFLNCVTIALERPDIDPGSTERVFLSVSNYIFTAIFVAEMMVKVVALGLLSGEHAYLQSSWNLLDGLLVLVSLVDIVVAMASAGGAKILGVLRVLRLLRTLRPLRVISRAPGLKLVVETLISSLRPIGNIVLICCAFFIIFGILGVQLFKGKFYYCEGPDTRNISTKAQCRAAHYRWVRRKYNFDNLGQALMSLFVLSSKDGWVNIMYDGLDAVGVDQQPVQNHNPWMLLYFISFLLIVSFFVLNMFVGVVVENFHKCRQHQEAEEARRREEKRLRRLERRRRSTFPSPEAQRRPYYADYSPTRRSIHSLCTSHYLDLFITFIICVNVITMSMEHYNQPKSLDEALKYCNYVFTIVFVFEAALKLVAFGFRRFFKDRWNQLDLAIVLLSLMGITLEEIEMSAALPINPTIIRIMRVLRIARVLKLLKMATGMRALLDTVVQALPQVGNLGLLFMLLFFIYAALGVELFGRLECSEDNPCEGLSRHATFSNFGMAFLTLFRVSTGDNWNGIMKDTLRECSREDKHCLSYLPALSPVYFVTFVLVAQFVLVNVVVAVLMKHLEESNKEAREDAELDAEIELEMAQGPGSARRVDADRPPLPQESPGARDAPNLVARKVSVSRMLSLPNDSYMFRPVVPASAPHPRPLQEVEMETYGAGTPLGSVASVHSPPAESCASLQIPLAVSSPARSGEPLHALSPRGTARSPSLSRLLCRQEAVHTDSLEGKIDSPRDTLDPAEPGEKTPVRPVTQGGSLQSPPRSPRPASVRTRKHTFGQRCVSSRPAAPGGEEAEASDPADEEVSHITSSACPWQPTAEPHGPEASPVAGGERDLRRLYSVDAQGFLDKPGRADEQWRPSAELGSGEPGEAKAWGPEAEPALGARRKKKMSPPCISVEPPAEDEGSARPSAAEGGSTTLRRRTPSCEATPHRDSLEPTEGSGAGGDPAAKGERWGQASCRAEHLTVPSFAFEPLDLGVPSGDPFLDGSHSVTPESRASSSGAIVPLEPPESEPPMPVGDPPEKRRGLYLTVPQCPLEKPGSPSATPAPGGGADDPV
Sequence of Genome polyprotein (P29990 2492-3391 limits assumed): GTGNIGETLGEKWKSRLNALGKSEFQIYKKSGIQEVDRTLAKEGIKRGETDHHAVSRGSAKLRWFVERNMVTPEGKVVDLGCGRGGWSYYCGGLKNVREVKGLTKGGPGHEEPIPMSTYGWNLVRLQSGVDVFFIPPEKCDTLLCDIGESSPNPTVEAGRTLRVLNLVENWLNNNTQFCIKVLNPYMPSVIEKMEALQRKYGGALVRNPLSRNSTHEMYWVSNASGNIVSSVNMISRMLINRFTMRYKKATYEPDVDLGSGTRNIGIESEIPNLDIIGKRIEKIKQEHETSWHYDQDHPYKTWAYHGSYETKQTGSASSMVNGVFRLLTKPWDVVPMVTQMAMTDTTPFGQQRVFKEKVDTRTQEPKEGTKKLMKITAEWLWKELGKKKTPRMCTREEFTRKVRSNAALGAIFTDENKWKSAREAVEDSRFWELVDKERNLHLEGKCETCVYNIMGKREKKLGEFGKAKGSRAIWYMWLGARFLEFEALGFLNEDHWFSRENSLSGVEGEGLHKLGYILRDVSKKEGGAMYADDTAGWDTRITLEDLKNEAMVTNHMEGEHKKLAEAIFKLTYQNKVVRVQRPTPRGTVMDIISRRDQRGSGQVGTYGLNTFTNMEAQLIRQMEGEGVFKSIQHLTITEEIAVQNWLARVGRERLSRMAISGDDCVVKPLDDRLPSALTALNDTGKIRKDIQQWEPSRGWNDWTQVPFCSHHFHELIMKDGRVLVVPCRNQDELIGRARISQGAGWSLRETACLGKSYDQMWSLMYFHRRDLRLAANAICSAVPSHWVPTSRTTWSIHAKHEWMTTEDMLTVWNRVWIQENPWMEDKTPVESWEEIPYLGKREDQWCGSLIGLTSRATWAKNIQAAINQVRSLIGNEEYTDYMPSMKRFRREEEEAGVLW
Sequence of Cytochrome P450 3A4 (P08684 whole entry): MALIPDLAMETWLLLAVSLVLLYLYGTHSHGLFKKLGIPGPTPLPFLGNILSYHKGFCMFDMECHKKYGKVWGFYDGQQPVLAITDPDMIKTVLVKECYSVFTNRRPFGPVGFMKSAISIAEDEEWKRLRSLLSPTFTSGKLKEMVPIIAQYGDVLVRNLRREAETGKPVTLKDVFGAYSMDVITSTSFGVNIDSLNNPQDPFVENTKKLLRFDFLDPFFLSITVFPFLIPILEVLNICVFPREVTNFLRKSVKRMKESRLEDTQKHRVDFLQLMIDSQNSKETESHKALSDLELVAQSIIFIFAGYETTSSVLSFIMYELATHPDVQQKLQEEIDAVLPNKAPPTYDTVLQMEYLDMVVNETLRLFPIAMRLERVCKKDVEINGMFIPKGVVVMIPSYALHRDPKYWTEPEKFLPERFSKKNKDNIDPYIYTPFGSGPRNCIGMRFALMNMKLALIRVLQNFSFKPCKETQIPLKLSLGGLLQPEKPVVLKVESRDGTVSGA

SMILES: COc1ccc(N2CCN(C(=O)CC(NC(N)=O)c3cccc(Oc4ccccc4)c3)CC2)cc1 (stereo unspecified)
EC50 [1]: 13.7 µM (active)

SMILES: CCN(CC)CCSC(=O)C(c1ccccc1)c1ccccc1
IC50 [2]: > 66 µM (inactive)
IC50 [3]: > 66 µM (inactive)

SMILES: CC(C)c1ccc(CN(C(=O)C2COc3ccccc3O2)C2CCS(=O)(=O)C2)cc1 (stereo unspecified)
EC50 [1]: 6.86 µM (active)
AC50 (Cytochrome P450 1A2): 25.1 µM (inconclusive)
AC50 (Cytochrome P450 3A4): 28.2 µM (inconclusive)

SMILES: O=C(CC1NCCNC1=O)Nc1ccc(Oc2ccccc2)cc1 (stereo unspecified)
EC50 [1]: 8.83 µM (active)

SMILES: COC(=O)N1C(=O)[C@](Cc2ccccc2)(c2ccccc2)N1C(=O)OC
IC50 (Fatty acid synthase [5]): 5.18 µM (active)
IC50 (Fatty acid synthase [6]): 4.85 µM (active)

SMILES: CC1CCN(c2ccc([N+](=O)[O-])c(SCCO)c2)CC1
CC50 [7]: > 40 µM (active)

SMILES: CC[C@]1(C(=O)OC)[C@H]2C(=O)N(Cc3ccccc3)C(=O)[C@H]2[C@H]2CN=C(SCC(=O)c3ccccc3)N21
IC50 [2]: > 66 µM (inactive)
IC50 [3]: > 66 µM (inactive)

SMILES: O=C(COc1ccc(Cl)cc1)Nc1ccc(C(=O)O)cc1NC(=O)COc1ccc(Cl)cc1
EC50 [8]: 0.0013 µM (active)
IC50 (Fatty acid synthase [5]): 15.3 µM (active)
IC50 (Fatty acid synthase [6]): 7.29 µM (active)

SMILES: C[C@H]1CN([C@@H](C)CO)S(=O)(=O)c2ccc(Br)cc2O[C@H]1CN(C)Cc1ccccc1
AC50 [9]: 23.5 µM (active)
AC50 [10]: 20.6 µM (active)
AC50 [11]: 33.4 µM (active)

SMILES: O=C(c1cccc(C(F)(F)F)c1)C1CCCN(C(=O)CCCN2CCCC2=O)C1 (stereo unspecified)
CC50 [7]: > 40 µM (active)

SMILES: COc1ccc(NC(=O)Nc2ccc3c(c2)C(=O)N([C@@H](C)CO)C[C@H](C)[C@H](CN(C)S(=O)(=O)c2ccc(C)cc2)O3)cc1
AC50 [9]: 6.5 µM (active)
AC50 [10]: 17.5 µM (active)
AC50 [11]: 23 µM (active)

SMILES: c1ccc2c3c([nH]c2c1)CNCC3 [TRYPTOLINE]
CC50 [7]: 28.7 µM (active)

More lines, now with the values ahead:

EC50 [1]: 5.14 µM (active)
SMILES: Cc1ccc(-c2noc(CN(C(=O)C(c3ccccc3)c3ccccc3)C(C)C)n2)cc1

IC50 (Genome polyprotein): 12.9 µM (active)
IC50 [2]: > 66 µM (inactive)
IC50 [3]: > 66 µM (inactive)
IC50 [4]: 47.3 µM (active)
SMILES: COc1cccc(/C=C2\C(=O)C(=O)c3ccccc32)c1

IC50 [2]: > 66 µM (inactive)
IC50 [3]: > 66 µM (inactive)
SMILES: Cc1cc(C)c2c(N)c(C(=O)NCC3CCCCC3)sc2n1

IC50 (Fatty acid synthase [5]): 33.6 µM (inactive)
IC50 (Fatty acid synthase [6]): 55.8 µM (inactive)
SMILES: COC(=O)C(CCCCNC(=O)c1ccc([N+](=O)[O-])cc1)NC(=O)c1ccc([N+](=O)[O-])cc1 (stereo unspecified)

IC50 (Fatty acid synthase [5]): 4.91 µM (active)
IC50 (Fatty acid synthase [6]): 2.51 µM (active)
SMILES: Cc1nn(Cc2ccc([N+](=O)[O-])cc2)c(=O)n1N(C)c1ncc(C(F)(F)F)cc1Cl

IC50 (Fatty acid synthase [5]): 15.2 µM (active)
IC50 (Fatty acid synthase [6]): 10.3 µM (active)
SMILES: CN1C(C(=O)NCc2cccc(Br)c2)CC2Cn3c(nc4cc(Cl)c(Cl)cc43)C21 (stereo unspecified)
